Measured values taken from patent US11214803B2, “Modulators of YAP1 expression” (Ionis Pharmaceuticals, Inc., priority 2019, dated 2022).
Strand notation (5' to 3'): a small letter for the sugar, then the base; units joined by * are phosphorothioate-linked, units joined directly phosphodiester-linked; [ ] holds rarer units or linkages, { } end groups; capitals alone tell only the bases. k = constrained ethyl (cEt); [5mC] = 5-methylcytosine; d = 2'-deoxy (DNA)

System: Yap1 mRNA
Assay: Dose-dependent inhibition of human Yap1 in A-431 cells (Example 8, 10,000 cells per well, RTS4814)
Type: cell-based
Details: free uptake, approximately 48 hours, RTS4814; for Yap1 mRNA, % UTC: A-431 cells, 10,000 cells per well; for IC50: A-431 cells, linear regression on log/linear plot
Method: Modified oligonucleotides described in the studies above were tested at various doses in A-431 cells. Cultured A-431 cells at a density of 10,000 cells per well were treated using free uptake with modified oligonucleotides diluted to concentrations described in the tables below. After approximately 48 hours, Yap1 mRNA levels were measured as previously described using the Human Yap1 primer-probe set RTS4814. Yap1 mRNA levels were normalized to total RNA content, as measured by RIBOGREEN®. Results are presented in the tables below as percent control of the amount of Yap1 mRNA relative to untreated control cells (% UTC). IC50s were calculated using a linear regression on a log/linear plot of the data in excel.

Substance | Yap1 mRNA, % UTC (31.3 nM) | Yap1 mRNA, % UTC (125.0 nM) | Yap1 mRNA, % UTC (500.0 nM) | Yap1 mRNA, % UTC (2000.00 nM) | IC50
1076000 (k[5mC]*k[5mC]*kT*dA*dA*dT*dA*dT*dG*dA*d[5mC]*dT*d[5mC]*k[5mC]*kT*kT; antisense) [compound 1076000] | 71 % UTC | 31 % UTC | 10 % UTC | 5 % UTC | 100 nM
1074251 (antisense kT*k[5mC]*kT*dG*dA*dT*d[5mC]*dG*dA*dT*dG*dT*dG*kA*kT*kT) [compound 1074251] | 73 % UTC | 33 % UTC | 16 % UTC | 10 % UTC | 100 nM
1074794 (k[5mC]*kA*kA*dA*dT*d[5mC]*dA*dA*dT*dG*dT*dG*d[5mC]*kT*k[5mC]*k[5mC]; antisense) [compound 1074794] | 56 % UTC | 23 % UTC | 10 % UTC | 6 % UTC | < 20 nM
1076295 (kG*kT*kA*dT*dA*dT*dT*dA*dG*dT*dG*d[5mC]*d[5mC]*k[5mC]*k[5mC]*k[5mC]; antisense) [compound 1076295] | 55 % UTC | 17 % UTC | 5 % UTC | 3 % UTC | < 20 nM
1074537 (k[5mC]*kA*kG*dT*dA*dA*dT*dA*dG*d[5mC]*dT*d[5mC]*dT*kT*kT*k[5mC]; antisense) [compound 1074537] | 47 % UTC | 21 % UTC | 6 % UTC | 4 % UTC | < 20 nM
1075465 (antisense kG*kA*kT*dT*dT*dA*dT*dT*dG*dA*dA*d[5mC]*dT*kG*kA*kG) [compound 1075465] | 75 % UTC | 35 % UTC | 14 % UTC | 9 % UTC | 100 nM
1075078 (antisense k[5mC]*kA*kA*d[5mC]*dT*dA*dT*dA*d[5mC]*dG*dG*dT*d[5mC]*k[5mC]*kA*kT) [compound 1075078] | 65 % UTC | 32 % UTC | 12 % UTC | 4 % UTC | 100 nM
1075146 (kG*kT*kA*dT*dT*dA*dA*dG*dG*dG*dA*dT*dT*kT*kT*k[5mC]; antisense) [compound 1075146] | 67 % UTC | 38 % UTC | 16 % UTC | 8 % UTC | 100 nM
1076298 (kG*kT*kT*dA*dT*dA*dA*dA*dG*dA*d[5mC]*d[5mC]*d[5mC]*kA*kA*kT; antisense) [compound 1076298] | 92 % UTC | 58 % UTC | 29 % UTC | 18 % UTC | 200 nM
1076552 (kA*kT*kG*dT*dA*dT*dA*dA*dA*dT*dA*d[5mC]*d[5mC]*kA*kG*kG; antisense) [compound 1076552] | 73 % UTC | 40 % UTC | 17 % UTC | 12 % UTC | 100 nM
1074563 (DNA kT*kG*kA*dA*dT*dT*d[5mC]*d[5mC]*dA*dA*dT*d[5mC]*dG*kA*kG*kA; antisense) [compound 1074563] | 80 % UTC | 31 % UTC | 7 % UTC | 5 % UTC | 100 nM
1074597 (DNA kA*kG*kT*dA*dT*dT*d[5mC]*dT*dA*dT*d[5mC]*d[5mC]*dA*kG*kG*kG; antisense) [compound 1074597] | 35 % UTC | 15 % UTC | 8 % UTC | 7 % UTC | < 20 nM
1074594 (DNA kT*kA*kG*dG*dA*dG*d[5mC]*dA*dA*dG*dT*d[5mC]*dT*kT*kG*kT) [compound 1074594] | 53 % UTC | 23 % UTC | 10 % UTC | 5 % UTC | < 20 nM
1075939 (antisense k[5mC]*kT*kT*dG*dA*dA*dT*dA*dT*dA*dT*dG*dG*kG*kT*kT) [compound 1075939] | 46 % UTC | 19 % UTC | 10 % UTC | 8 % UTC | < 20 nM
1075081 (antisense kG*kA*kT*dT*dA*d[5mC]*dA*dA*dA*dG*dA*d[5mC]*dA*kG*k[5mC]*k[5mC]) [compound 1075081] | 76 % UTC | 50 % UTC | 22 % UTC | 9 % UTC | 100 nM
